# From patent publication US11679107B2 (Eisai R&D Management Co., Ltd., priority 2018, dated 2023)
# Like-named read-outs stand apart in the source and are kept apart here.
# Tests used:
# SF3b complexes = biological target: T1, SF3b complexes (Homo sapiens, UniProt O75533+Q7RTV0); test: Scintillation proximity assay (SPA) with [3H]-labelled pladienolide probe; type: binding; conditions: SF3B1 (WT); geometric mean; read-out: SPA-ATS GMean IC50 (nM) SF3B1 (WT)
# T1 construct: endogenous in cells; host or cells: Nuclear extracts; A HeLa S3 extract preparation is described for the in vitro splicing assay
# Procedure, shortened: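 SF3b complexes captured from nuclear extracts on anti-SF3B1 antibody SPA beads; test compounds pre-incubated 30 min before 2.5 nM [3H]-pladienolide probe added, then 30 min incubation. Bound probe read by scintillation; values from non-linear regression of concentration–response curves.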
# [1] = test system: NCI-H1568 cells (high MCL1); test: Cell proliferation and viability, CellTiter-Glo, 72 hours; type: cell-based; conditions: for GI50: geometric mean
# Procedure, shortened: (§1)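 RPMI-1640/10% FBS (Panc: + insulin, FBS 15%); 11-pt half-log dose, ~10 μM-100 pM, 0.1% DMSO; 37° C, 5% CO2; ATP luminescence read; % inhibition vs T0 and vehicle, −100% cidal to 100% uninhibited growth.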
# [2] = test system: Panc 05.04 cells (SF3b K700E mutant); test: as above; type: cell-based; conditions: for GI50: geometric mean
# Procedure, shortened: as §1
# [3] = test system: Ad2 variant pre-mRNAs spliced in HeLa S3 nuclear extracts; test: In vitro splicing assay (IVS), RT-qPCR of spliced product; type: biochemical; conditions: for IC50: geometric mean; for Ratio Ad2.1/2.2: ratio of IVS IC50 Ad2.1 to Ad2.2
# Procedure, shortened: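 Read-out is one-step TaqMan RT-qPCR of spliced Ad2 mRNA with Ftz as reference, normalized to DMSO and fit by non-linear regression. Reactions held HeLa S3 nuclear extract, 2 ng Ad2-derived pre-mRNA and test compound, with 15 min preincubation. Splicing was started with ATP-containing activation buffer and run 90 min at 30 °C.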
# [4] = 72 h, NCIH1568.1, -100% = cidal, 0% = static, 100% = uninhibited growth
# [5] = NCI-H1568, 72 h, read-out: CTGlo-ATS GMean GI50 (nM) 72 h NCIH1568.1, 72 h, NCIH1568.1
# [6] = 72 h, PANC0504.1, -100% = cidal, 0% = static, 100% = uninhibited growth
# [7] = Panc 05.04, 72 h, read-out: CTGlo-ATS GMean GI50 (nM) 72 h PANC0504.1, 72 h, PANC0504.1
# [8] = Ad2.1 pre-mRNA substrate, read-out: qPCR-IVS-ATS GMean IC50 (nM) Ad2.1
# [9] = Ad2.2 pre-mRNA substrate, read-out: qPCR-IVS-ATS GMean IC50 (nM) Ad2.2
# [10] = NCI-H1568, read-out: CTGlo-ATS GMean GI50 (nM) 72 h NCIH1568.1, NCIH1568.1 cells, 72 h
# [11] = NCIH1568.1 cells, 72 h, −100% cidal, 0% static, 100% maximal growth
# [12] = PANC0504.1 cells, 72 h, −100% cidal, 0% static, 100% maximal growth
# [13] = Panc 05.04, read-out: CTGlo-ATS GMean GI50 (nM) 72 h PANC0504.1, PANC0504.1 cells, 72 h
SMILES,IC50 (SF3b complexes) [nM],"CTGlo-ATS Mean MinResponse % 72 h NCIH1568.1 [1, 4] [%]","GI50 [1, 5] [nM]","CTGlo-ATS Mean MinResponse % 72 h PANC0504.1 [2, 6] [%]","GI50 [2, 7] [nM]","IC50 [3, 8] [nM]","IC50 [3, 9] [nM]",Ratio Ad2.1/2.2 [3],"GI50 ([1]; NCI-H1568, read-out: CTGlo-ATS GMean GI50 (nM) 72 h NCIH1568.1, 72 h, NCIH1568.1) [nM]","GI50 ([2]; Panc 05.04, read-out: CTGlo-ATS GMean GI50 (nM) 72 h PANC0504.1, 72 h, PANC0504.1) [nM]","GI50 [1, 10] [nM]","CTGlo-ATS Mean MinResponse % 72 h NCIH1568.1 [1, 11] [%]","CTGlo-ATS Mean MinResponse % 72 h PANC0504.1 [2, 12] [%]","GI50 [2, 13] [nM]","GI50 ([1]; NCI-H1568, 72 h, read-out: CTGlo-ATS GMean GI50 (nM) 72 h NCIH1568.1, NCIH1568.1 cells, 72 h) [nM]","GI50 ([2]; Panc 05.04, 72 h, read-out: CTGlo-ATS GMean GI50 (nM) 72 h PANC0504.1, PANC0504.1 cells, 72 h) [nM]"
"[2H]C([2H])([2H])N1CCN(C(=O)O[C@H]2/C=C/C(C)C(/C(C)=C/c3cc(F)cc(N4CCOCC4)c3)OC(=O)CC(O)CC[C@@H]2C)CC1 (stereo in doubt) [Compound 220, [(2R,3R,4E,6R,7S,10S)-2-[(E)-1-(3-fluoro-5-morpholin-4-ylphenyl)prop-1-en-2-yl]-10-hydroxy-3,7-dimethyl-12-oxo-1-oxacyclododec-4-en-6-yl] 4-(trideuteriomethyl)piperazine-1-carboxylate]",3.17,−76.936,2.01,−90.506,4.36,19.3,14.4,1.344,,,,,,,,
"C/C(=C\c1ccc(C)c(N2CCCC2=O)c1)[C@H]1OC(=O)C[C@H](O)CC[C@H](C)[C@@H](OC(=O)N2CCN(C)CC2)/C=C/[C@@H]1C [Compound 207, [(2S,3S,4E,6R,7S,10R)-10-hydroxy-3,7-dimethyl-2-[(E)-1-[4-methyl-3-(2-oxopyrrolidin-1-yl)phenyl]prop-1-en-2-yl]-12-oxo-1-oxacyclododec-4-en-6-yl] 4-methylpiperazine-1-carboxylate]",3.46,−63.380,,−92.266,,22.5,15.5,1.451,16.9,15.1,,,,,,
C/C(=C\c1ccnc(N2CCOCC2)c1)[C@H]1OC(=O)C[C@H](O)CC[C@H](C)[C@@H](OC(=O)N2CCN(C)CC2)/C=C/[C@@H]1C [Compound 6],8.85,,,,,> 25000,75.3,,,,29.1,−17.149,−88.664,15.7,,
C/C(=C\c1cc(F)c2cnn(CC#N)c2c1)[C@H]1OC(=O)C[C@H](O)CC[C@H](C)[C@@H](OC(=O)N2CCN(C)CC2)/C=C/[C@@H]1C [Compound 131],4.04,,,,,357,45.8,,,,19.2,−65.430,−94.995,27.1,,
C/C(=C\c1cc(F)cc(N2C[C@@H](C)O[C@@H](C)C2)c1)[C@H]1OC(=O)C[C@H](O)CC[C@H](C)[C@@H](OC(=O)N2CCC(N3CCCCC3)CC2)/C=C/[C@@H]1C [Compound 16],57,,,,,100,39.2,,,,59.1,−88.977,−85.810,41.5,,
C/C(=C\c1cc(F)cc(N2CCN(CCN3CCOCC3)C2=O)c1)[C@H]1OC(=O)C[C@H](O)CC[C@H](C)[C@@H](OC(=O)N2CCN(C)CC2)/C=C/[C@@H]1C [Compound 67],1.95,,,,,22.7,20.2,,,,8.6,−75.182,−87.661,7.27,,
C/C(=C\c1cc(F)cc(N2CCC[C@@H]2C)c1)[C@H]1OC(=O)C[C@H](O)CC[C@H](C)[C@@H](OC(=O)N2CCN(C)CC2)/C=C/[C@@H]1C [Compound 43],12,,,,,> 25000,139,,,,,−36.254,−88.777,,89.1,57.5
CNC(=O)[C@H]1CN(c2cc(F)cc(/C=C(\C)[C@H]3OC(=O)C[C@H](O)CC[C@H](C)[C@@H](OC(=O)N4CCN(C)CC4)/C=C/[C@@H]3C)c2)CCO1 [Compound 78],1.76,,,,,24.3,13.8,,,,2.5,−74.454,−93.916,7.33,,
C/C(=C\c1cc(F)cc(N(C)C2CCN(C)CC2)c1)[C@H]1OC(=O)C[C@H](O)CC[C@H](C)[C@@H](OC(=O)N2CCN(C)CC2)/C=C/[C@@H]1C [Compound 31],43.2,,,,,50.1,14.6,,,,89.4,−98.108,−90.716,53,,
C/C(=C\c1cc(F)cc(N2CCN(C(=O)CO)CC2)c1)[C@H]1OC(=O)C[C@H](O)CC[C@H](C)[C@@H](OC(=O)N2CCN(C)CC2)/C=C/[C@@H]1C [Compound 135],3.67,,,,,14.9,14.9,,,,2.41,−84.225,−90.575,2.46,,
C/C(=C\c1cc(F)cc(N2CCS(=O)(=O)CC2)c1)[C@H]1OC(=O)C[C@H](O)CC[C@H](C)[C@@H](OC(=O)N(C)C)/C=C/[C@@H]1C [Compound 51],19.7,,,,,> 25000,88.1,,,,112,−31.962,−78.388,80.9,,
"C/C(=C\c1cc(F)c2cnn(CC3CC3)c2c1)[C@H]1OC(=O)C[C@H](O)CC[C@H](C)[C@@H](OC(=O)N2CCN(C)CC2)/C=C/[C@@H]1C [Compound 87, [(2S,3S,4E,6R,7S,10R)-2-[(E)-1-[1-(cyclopropylmethyl)-4-fluoroindazol-6-yl]prop-1-en-2-yl]-10-hydroxy-3,7-dimethyl-12-oxo-1-oxacyclododec-4-en-6-yl] 4-methylpiperazine-1-carboxylate]",4.98,,,,,62.7,27,,,,3.68,−85.463,−79.550,4.19,,
C/C(=C\c1cc(F)c2cnn(CC(=O)N(C)C)c2c1)[C@H]1OC(=O)C[C@H](O)CC[C@H](C)[C@@H](OC(=O)N2CCN(C)CC2)/C=C/[C@@H]1C [Compound 132],4.91,,,,,34.1,12.8,,,,11.5,−68.423,−94.673,13.6,,
C/C(=C\c1cc(F)c2cn(CC3CC3)nc2c1)[C@H]1OC(=O)C[C@H](O)CC[C@H](C)[C@@H](OC(=O)N2CCN(C)CC2)/C=C/[C@@H]1C [Compound 99],4.14,,,,,> 25000,156,,,,93.2,−73.818,−69.788,78,,
"C/C(=C\c1cccc(S(=O)(=O)C2CC2)c1)[C@H]1OC(=O)C[C@H](O)CC[C@H](C)[C@@H](OC(=O)N2CCN(C)CC2)/C=C/[C@@H]1C [Compound 215, [(2S,3S,4E,6R,7S,10R)-2-[(E)-1-(3-cyclopropylsulfonylphenyl)prop-1-en-2-yl]-10-hydroxy-3,7-dimethyl-12-oxo-1-oxacyclododec-4-en-6-yl] 4-methylpiperazine-1-carboxylate]",6.83,−42.412,25,−81.853,20,20500,50.7,403.817,,,,,,,,
